# Measured values: US20040076581A1, “Use of neuropeptide y1 receptor binding compounds in the treatment and diagnosis of cancer” (priority 2000, published 2004)
# Entries after “also recorded” stand apart in the source; their conditions may differ.
# What was measured:
# [1] = biological target: T1, NPY receptors in breast carcinoma (Homo sapiens, UniProt P25929); test: NPY receptor autoradiography, total binding of radioligands to breast carcinoma
# T1 construct: Twenty-μm thick cryostat sections of the tissue samples were processed for NPY receptor autoradiography; from tissue; host or cells: human breast carcinoma cryostat sections
# T1 sequence (P25929 1-384): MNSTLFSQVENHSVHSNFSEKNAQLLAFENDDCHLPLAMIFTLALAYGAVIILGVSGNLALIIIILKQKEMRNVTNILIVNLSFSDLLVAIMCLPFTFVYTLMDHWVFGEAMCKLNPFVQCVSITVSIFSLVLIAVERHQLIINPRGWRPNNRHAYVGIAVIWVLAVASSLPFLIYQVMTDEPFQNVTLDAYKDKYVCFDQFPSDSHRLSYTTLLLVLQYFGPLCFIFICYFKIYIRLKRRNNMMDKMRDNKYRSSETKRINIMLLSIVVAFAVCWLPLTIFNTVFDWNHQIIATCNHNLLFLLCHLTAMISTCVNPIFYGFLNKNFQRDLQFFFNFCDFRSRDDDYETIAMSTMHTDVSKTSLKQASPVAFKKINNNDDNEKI
# Protocol: (§1) Twenty-μm thick cryostat sections of the tissue samples were processed for NPY receptor autoradiography as described in detail previously for other peptide receptors (Reubi, J. C. et al. Cancer Res. 50, 5969-5977 (1990)). One radioligand used was ^125I-PYY (2'000 Ci/mmol; […], Switzerland), known to specifically label NPY receptors. For autoradiography, tissue sections were mounted on precleaned microscope slides and stored at -20° C. for at least 3 days to improve adhesion of the tissue to the slide. Sections were then processed according to Dumont et al. (J. Neurosci. 13, 73-86 (1993)). They were first preincubated in 119 mM NaCl, 3.2 mM KCl, 1.19 mM KH2PO4, 1.19 mm MgSO4, 25 mM NaHCO3, 2.53 mM CaCl2×2H2O and 10 mM D-glucose, pH 7.4 (preincubation solution), for 60 min at room temperature. The slides were then incubated in a solution containing the same medium as the preincubation solution in which the following compounds were added: 0.1% bovine serum albumin, 0.05% bacitracin, pH 7.4, and the radioligand, at approximate concentration of 22 pM ^125I-PYY. The slides were incubated at room temperature with the radioligand for 120 min. On completion of the incubation, the slides were washed four times for 5 min each in ice-cold preincubation solution, pH 7.4. They were rinsed twice in ice-cold distilled water, and then dried under a stream of cold air at 4° C., apposed to ^3H-Hyperfilms and exposed for 7 days in x-ray cassettes. […] Int 21, 45-67 (1992); […] Neurosci. 76, 215-224 (1997)). Identical experimental conditions as mentioned for ^125I-PYY were used. The autoradiograms were quantified using a computer-assisted image processing system, as described previously (Reubi et al. (1990), supra; […] & Reubi Can. Res. 59,1152-1159 (1999)). Tissue standards for iodinated compounds (Amersham) were used for this purpose. A tissue was defined as receptor-positive when the optical density measured in the total binding section was at least twice that of the nonspecific binding section (in the presence of 10^-7 mol/L PYY).
# [2] = tested on: NPY receptors in normal breast; test: NPY receptor autoradiography, total binding of radioligands to adjacent normal breast; parameters: species or system human; details: FIG. 1
# Protocol: as §1
# [3] = biological target: T2, Y1 in human breast carcinoma (Homo sapiens, UniProt P25929); test: NPY receptor autoradiography, displacement of 125I-PYY in breast carcinoma sections; type: binding; details: FIG. 2; increasing concentrations; Y1-expressing breast tumor
# T2 construct: Twenty-μm thick cryostat sections of the tissue samples were processed for NPY receptor autoradiography; from tissue; host or cells: human breast carcinoma cryostat sections
# T2 sequence (P25929 1-384): T1 sequence (P25929 1-384)
# Protocol: For autoradiography, tissue sections were mounted on precleaned microscope slides and stored at −20° C. for at least 3 days to improve adhesion of the tissue to the slide.
# (§2) On completion of the incubation, the slides were washed four times for 5 min each in ice-cold preincubation solution, pH 7.4. They were rinsed twice in ice-cold distilled water, and then dried under a stream of cold air at 4° C., apposed to ^3H-Hyperfilms and exposed for 7 days in x-ray cassettes.
# (§3) Tissue standards for iodinated compounds (Amersham) were used for this purpose.
# [4] = biological target: T3, Y2 receptors in normal breast (Homo sapiens, UniProt P49146); test: NPY receptor autoradiography, displacement of 125I-PYY in adjacent normal breast sections; type: binding; details: FIG. 1; surrounding normal breast expressing predominantly Y2
# T3 construct: Twenty-μm thick cryostat sections of the tissue samples were processed for NPY receptor autoradiography; from tissue; host or cells: human normal breast tissue adjacent to carcinoma, cryostat sections
# T3 sequence (P49146 1-381): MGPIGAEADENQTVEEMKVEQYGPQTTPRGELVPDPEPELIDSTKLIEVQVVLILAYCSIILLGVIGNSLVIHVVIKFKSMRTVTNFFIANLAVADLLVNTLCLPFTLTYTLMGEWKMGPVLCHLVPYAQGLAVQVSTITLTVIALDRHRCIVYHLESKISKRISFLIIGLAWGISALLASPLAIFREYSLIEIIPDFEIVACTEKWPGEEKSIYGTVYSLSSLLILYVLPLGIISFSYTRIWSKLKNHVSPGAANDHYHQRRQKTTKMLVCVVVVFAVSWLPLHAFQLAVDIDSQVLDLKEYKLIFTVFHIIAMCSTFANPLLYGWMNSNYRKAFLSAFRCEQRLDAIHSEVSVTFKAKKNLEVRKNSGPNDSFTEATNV
# Protocol: For autoradiography, tissue sections were mounted on precleaned microscope slides and stored at −20° C. for at least 3 days to improve adhesion of the tissue to the slide. […] The slides were incubated at room temperature with the radioligand for 120 min.
# In selected cases, displacements with a single concentration (25 nM) of each of the above mentioned peptides were performed.
# as §2, §3
labeling of tumor by radioligand (total binding) ([1]; FIG. 1),labeling of breast by radioligand (total binding) [2],Molecule,"displacement of 125I-PYY, competition curves [3]",further results
strong labeling,strong labeling,^125I-PYY,–,–
–,–,PYY(13-36),not,–
–,–,C[C@H](N)C(=O)NCC(=O)N[C@H]1CSSC[C@@H](C(=O)O)NC(=O)[C@H](CO)NC(=O)[C@H]([C@@H](C)O)NC(=O)[C@H](Cc2ccccc2)NC(=O)[C@H]([C@@H](C)O)NC(=O)[C@H](CCCCN)NC(=O)[C@H](Cc2c[nH]c3ccccc23)NC(=O)[C@H](Cc2ccccc2)NC(=O)[C@H](Cc2ccccc2)NC(=O)[C@H](CC(N)=O)NC(=O)[C@H](CCCCN)NC1=O [Somatostatin],inactive,–
–,–,"[Leu^31, Pro^34]-NPY",–,affinity in surrounding breast (rank order of potency) [4]: low affinity
not seen,labeled,^125I-PYY(3-36),–,–
–,–,"[Leu^31, Pro^34]-PYY",completely displace the radiotracer with high affinity; also recorded: high affinity displacement,affinity in surrounding breast (rank order of potency) [4]: low affinity
–,–,PYY: member of the NPY family of 36 amino acid long peptides [peptide YY],high affinity displacement,–
strongly labeled,not or only very weakly visible,"^125I-[Leu^31, Pro^34]-PYY",–,"labeling of tumor by radioligand (total binding) ([1]; FIG. 1, Pro^34]-PYY): labeled"
